Measurements reported in the supplement of paper PMC10307832.

Experiments:
Experiment in all cases: relative viability (nuclei count vs DMSO), 5 days (fraction); higher = more cells survive
Dasatinib + Alpelisib = compound: Cc1nc(Nc2ncc(C(=O)Nc3c(C)cccc3Cl)s2)cc(N2CCN(CCO)CC2)n1 [Dasatinib] + Cc1nc(NC(=O)N2CCC[C@H]2C(N)=O)sc1-c1ccnc(C(C)(C)C(F)(F)F)c1 [Alpelisib] (partner 2 µM)
Procedure, shortened: (§1)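 Values are medians from duplicate plates. Each reflects relative viability, defined as the nuclei count of treated wells over that of vehicle wells. Lung cancer cell lines in 1536-well plates were pin-tool dosed one day after seeding with one drug alone or with a fixed anchor-drug dose plus five library-drug doses (not always all listed) in √10 steps, then fixed, stained and imaged at 4× after 5 days.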

Dasatinib + Tozasertib = compound: Cc1nc(Nc2ncc(C(=O)Nc3c(C)cccc3Cl)s2)cc(N2CCN(CCO)CC2)n1 [Dasatinib] + Cc1cc(Nc2cc(N3CCN(C)CC3)nc(Sc3ccc(NC(=O)C4CC4)cc3)n2)n[nH]1 [Tozasertib] (partner 0.1 µM)
Procedure, shortened: as §1

XMD13-2 + Linsitinib = compound: C1CC1C(=O)NC2=NNC3=C2C=CC(=C3)C4=CC(=CC=C4)C(=O)NC5CC5 [XMD13-2] + C[C@]1(O)C[C@@H](c2nc(-c3ccc4ccc(-c5ccccc5)nc4c3)c3c(N)nccn32)C1 [Linsitinib] (partner 1 µM)
Procedure, shortened: as §1

XMD13-2 + Vorinostat = compound: C1CC1C(=O)NC2=NNC3=C2C=CC(=C3)C4=CC(=CC=C4)C(=O)NC5CC5 [XMD13-2] + O=C(CCCCCCC(=O)Nc1ccccc1)NO [Vorinostat] (partner 1 µM)
Procedure, shortened: as §1

Cell Line | relative viability (Dasatinib + Alpelisib; first compound 0.005 µM) | relative viability (Dasatinib + Alpelisib; first compound 0.01581 µM) | relative viability (Dasatinib + Alpelisib; first compound 0.05 µM) | relative viability (Dasatinib + Alpelisib; first compound 0.1581 µM) | relative viability (Dasatinib + Alpelisib; first compound 0.5 µM) | relative viability (Dasatinib + Tozasertib; first compound 0.005 µM) | relative viability (Dasatinib + Tozasertib; first compound 0.01581 µM) | relative viability (Dasatinib + Tozasertib; first compound 0.05 µM) | relative viability (Dasatinib + Tozasertib; first compound 0.1581 µM) | relative viability (Dasatinib + Tozasertib; first compound 0.5 µM) | relative viability (XMD13-2 + Linsitinib; first compound 0.05 µM) | relative viability (XMD13-2 + Linsitinib; first compound 0.1581 µM) | relative viability (XMD13-2 + Linsitinib; first compound 0.5 µM) | relative viability (XMD13-2 + Linsitinib; first compound 1.581 µM) | relative viability (XMD13-2 + Linsitinib; first compound 5 µM) | relative viability (XMD13-2 + Vorinostat; first compound 0.05 µM) | relative viability (XMD13-2 + Vorinostat; first compound 0.1581 µM) | relative viability (XMD13-2 + Vorinostat; first compound 0.5 µM) | relative viability (XMD13-2 + Vorinostat; first compound 1.581 µM) | relative viability (XMD13-2 + Vorinostat; first compound 5 µM)
NCI-H1651 | 0.899 | 0.853 | 0.66 | 0.544 | 0.619 | 0.679 | 0.611 | 0.724 | 0.522 | 0.656 | 0.964 | 0.961 | 1.05 | 1.07 | 1.01 | 0.586 | 0.561 | 0.565 | 0.593 | 0.613
NCI-H1666 | 0.964 | 0.855 | 0.844 | 0.563 | 0.31 | 0.632 | 0.616 | 0.67 | 0.565 | 0.309 | 0.869 | 0.804 | 0.741 | 0.818 | 0.86 | 0.999 | 1.02 | 1.09 | 1.03 | 1
NCI-H1734 | 0.553 | 0.477 | 0.469 | 0.346 | 0.278 | 0.26 | 0.285 | 0.235 | 0.165 | 0.181 | 0.893 | 0.996 | 0.938 | 0.784 | 0.743 | 1.02 | 0.777 | 0.753 | 0.685 | 0.547
NCI-H1755 | 0.775 | 0.602 | 0.437 | 0.275 | 0.137 | 0.584 | 0.532 | 0.516 | 0.312 | 0.21 | 1.04 | 0.942 | 1.06 | 0.963 | 1.02 | 0.827 | 0.685 | 0.875 | 0.926 | 0.795
NCI-H1793 | 0.554 | 0.45 | 0.545 | 0.512 | 0.443 | 0.231 | 0.19 | 0.181 | 0.146 | 0.147 | 0.882 | 0.811 | 0.852 | 0.713 | 0.999 | 1.03 | 0.602 | 0.746 | 0.666 | 0.928
NCI-H1915 | 1.01 | 0.979 | 0.933 | 0.395 | 0.311 | 0.435 | 0.372 | 0.301 | 0.173 | 0.157 | 1.15 | 1.13 | 1.07 | 1.1 | 1.09 | 0.582 | 0.486 | 0.5 | 0.486 | 0.474
NCI-H1944 | 0.781 | 0.725 | 0.575 | 0.289 | 0.203 | 0.259 | 0.223 | 0.201 | 0.111 | 0.104 | 1.24 | 1.18 | 1.26 | 1.29 | 1.34 | 0.632 | 0.53 | 0.607 | 0.808 | 0.628
NCI-H1975 | 0.579 | 0.437 | 0.361 | 0.21 | 0.199 | 0.692 | 0.677 | 0.648 | 0.377 | 0.245 | 1.08 | 0.926 | 0.968 | 0.972 | 1.07 | 0.795 | 0.636 | 0.662 | 0.931 | 0.801
NCI-H1993 | 0.702 | 0.66 | 0.653 | 0.521 | 0.587 | 0.524 | 0.435 | 0.563 | 0.448 | 0.377 | 0.807 | 0.78 | 0.731 | 0.743 | 0.694 | 1.2 | 0.814 | 0.769 | 0.613 | 0.907
NCI-H2009 | 1.15 | 0.956 | 1.04 | 0.88 | 0.204 | 0.738 | 0.65 | 0.679 | 0.4 | 0.179 | 1.19 | 1.19 | 1.13 | 1.2 | 1.16 | 0.838 | 0.732 | 0.835 | 0.783 | 0.804
NCI-H2023 | 0.479 | 0.481 | 0.436 | 0.473 | 0.27 | 0.304 | 0.316 | 0.293 | 0.245 | 0.219 | 0.697 | 0.684 | 0.572 | 0.649 | 0.854 | 0.837 | 0.668 | 0.696 | 0.731 | 0.94
NCI-H2085 | 0.874 | 0.794 | 0.596 | 0.292 | 0.2 | 0.737 | 0.641 | 0.564 | 0.229 | 0.214 | 0.894 | 0.819 | 0.873 | 0.984 | 0.963 | 0.897 | 0.745 | 0.842 | 0.711 | 0.81
NCI-H2087 | 0.988 | 0.957 | 1.34 | 1.01 | 0.613 | 0.289 | 0.21 | 0.246 | 0.185 | 0.113 | 0.922 | 0.991 | 0.869 | 0.811 | 0.784 | 0.686 | 0.902 | 0.729 | 0.898 | 0.853
NCI-H2126 | 0.761 | 0.643 | 0.65 | 0.518 | 0.339 | 0.832 | 0.732 | 0.773 | 0.654 | 0.348 | 0.697 | 0.693 | 0.755 | 0.662 | 0.703 | 0.849 | 0.731 | 0.745 | 0.749 | 0.735
NCI-H2228 | 0.693 | 0.769 | 0.581 | 0.263 | 0.268 | 0.231 | 0.232 | 0.216 | 0.185 | 0.184 | 0.735 | 0.83 | 0.768 | 0.546 | 0.622 | 0.642 | 0.573 | 0.507 | 0.76 | 0.752
NCI-H2347 | 0.845 | 0.817 | 0.783 | 0.327 | 0.34 | 0.56 | 0.454 | 0.363 | 0.238 | 0.263 | 0.973 | 0.951 | 0.973 | 0.924 | 0.972 | 0.565 | 0.619 | 0.765 | 0.562 | 0.661
